Measured values as given in patent US20210078988A1, “MODULATORS OF INDOLEAMINE 2,3-DIOXYGENASE” (GLAXOSMITHKLINE INTELLECTUAL PROPERTY DEVELOPMENT LIMITED, priority 2017, published 2021).

molecular target: T1, indoleamine 2, 3-dioxygenase (IDO1) (Homo sapiens, UniProt P14902); assay: PBMC IDO1 assay (kynurenine detection via mass spectrometry); format: cell-based; conditions: human PBMC stimulated with IFN-γ and LPS, 2 days, kynurenine by mass spectrometry; read-out: IDO1 PBMC pIC50 (converted)
T1 construct: human peripheral blood mononuclear cells (PBMC) (PB003F; host or cells: human PBMC stimulated with IFN-gamma and LPS
In short: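 Human PBMCs (50,000/well) stimulated with IFN-γ 100 ng/ml and LPS 50 ng/ml were exposed to 11-point 3-fold compound dilutions for 2 days at 37 °C. Supernatant kynurenine was quantified by RapidFire MS relative to an internal standard; parallel CellTiter-Glo ATP luminescence measured cytotoxicity, with four-parameter curve fitting.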

T1 sequence (P14902 whole entry): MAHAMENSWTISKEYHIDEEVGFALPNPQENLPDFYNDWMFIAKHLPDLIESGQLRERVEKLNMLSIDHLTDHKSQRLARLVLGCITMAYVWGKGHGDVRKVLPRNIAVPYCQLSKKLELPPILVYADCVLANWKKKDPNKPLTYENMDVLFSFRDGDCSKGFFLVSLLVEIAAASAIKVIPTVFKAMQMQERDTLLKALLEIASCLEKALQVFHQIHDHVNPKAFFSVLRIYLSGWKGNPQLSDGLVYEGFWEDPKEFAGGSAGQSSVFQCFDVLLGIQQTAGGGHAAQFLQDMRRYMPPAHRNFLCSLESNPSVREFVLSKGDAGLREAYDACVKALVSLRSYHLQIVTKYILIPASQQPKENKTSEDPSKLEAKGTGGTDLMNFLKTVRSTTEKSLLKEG

| Structure (SMILES) | IC50 |
| --- | --- |
| CC(C)(C)OC(=O)N1CCC(CC(NC(=O)c2ccc(F)cc2)c2ccccn2)CC1 (stereo not shown) [Example 226, tert-butyl 4-(2-(4-fluorobenzamido)-2-(pyridin-2-yl)ethyl)piperidine-1-carboxylate] | 631 nM |
| CC(C)Cc1ccc(C(=O)NC(CC2CCN(C(=O)OC(C)(C)C)CC2)c2ccccc2)s1 (stereo not shown) [Example 227, tert-butyl 4-(2-(5-isobutylthiophene-2-carboxamido)-2-phenylethyl)piperidine-1-carboxylate] | 631 nM |
| CC(C)(C)OC(=O)N1CCC(CC(NC(=O)c2ccco2)c2ccccc2)CC1 (stereo not shown) [Example 228, tert-butyl 4-(2-(furan-2-carboxamido)-2-phenylethyl)piperidine-1-carboxylate] | 631 nM |
| CC(C)(C)OC(=O)N1CCC(C[C@H](Nc2ccnc(Cl)n2)C2CC2)CC1 [Example 229, (S)-tert-butyl 4-(2-((2-chloropyrimidin-4-yl)amino)-2-cyclopropylethyl)piperidine-1-carboxylate] | 631 nM |
| O=C(NC(CC1CCN(C(=O)N2CCCCC2)CC1)c1ccccc1)c1ccc(Cl)cc1 (stereo not shown) [Example 230, 4-chloro-N-(1-phenyl-2-(1-(piperidine-1-carbonyl)piperidin-4-yl)ethyl)benzamide] | 631 nM |
| CCNCC[C@H](CC1CCN(C(=O)OC(C)(C)C)CC1)NC(=O)c1ccc(Cl)s1 [Example 231, (S)-tert-butyl 4-(2-(5-chlorothiophene-2-carboxamido)-4-(ethylamino)butyl)piperidine-1-carboxylate] | 631 nM |
| CC(C)(C)OC(=O)N1CCC(CC(NC(=O)C2CCCC2)c2ccccc2)CC1 (stereo not shown) [Example 232, tert-butyl 4-(2-(cyclopentanecarboxamido)-2-phenylethyl)piperidine-1-carboxylate] | 794 nM |
| CC1CCC(C(=O)NC(CC2CCN(C(=O)OC(C)(C)C)CC2)c2ccccc2)CC1 (stereo not shown) [Example 233, tert-butyl 4-(2-(4-methylcyclohexanecarboxamido)-2-phenylethyl)piperidine-1-carboxylate] | 794 nM |
| CC(C)(C)OC(=O)N1CCC(C[C@@H](NC(=O)c2ccc(Cl)cc2)c2ccccc2)CC1 [Example 234, (R)-tert-butyl 4-(2-(4-chlorobenzamido)-2-phenylethyl)piperidine-1-carboxylate] | 794 nM |
| COCCNCC(CC1CCN(C(=O)OC(C)(C)C)CC1)NC(=O)c1ccc(F)cc1 (stereo not shown) [Example 235, tert-butyl 4-(2-(4-fluorobenzamido)-3-((2-methoxyethyl)amino)propyl)piperidine-1-carboxylate] | 794 nM |
